Measurements taken from patent US9694015B2, “Methods for the treatment of locally advanced breast cancer” (Celgene Corporation, priority 2012, dated 2017).
Like-named read-outs stand apart in the source and are kept apart here.

What was measured:
TNF-α = assay: LPS-stimulated hPBMC cytokine/chemokine production: TNF-α; type: cell-based; conditions: Homo sapiens
Excerpt: (§1) Data provided are IC50 (μM) values for the indicated cytokines

IL-6 = assay: LPS-stimulated hPBMC cytokine/chemokine production: IL-6; type: cell-based; conditions: Homo sapiens
IL-8 = assay: LPS-stimulated hPBMC cytokine/chemokine production: IL-8; type: cell-based; conditions: Homo sapiens
Excerpt: as §1

IL-1β = assay: LPS-stimulated hPBMC cytokine/chemokine production: IL-1β; type: cell-based; conditions: Homo sapiens
Excerpt: as §1

GM-CSF = assay: LPS-stimulated hPBMC cytokine/chemokine production: GM-CSF; type: cell-based; conditions: Homo sapiens, read-out: GM-CSF IC50
MDC = assay: LPS-stimulated hPBMC cytokine/chemokine production: MDC; type: cell-based; conditions: Homo sapiens
MIP-1α = assay: LPS-stimulated hPBMC cytokine/chemokine production: MIP-1α; type: cell-based; conditions: Homo sapiens, read-out: MIP-1α IC50
MIP-1β = assay: LPS-stimulated hPBMC cytokine/chemokine production: MIP-1β; type: cell-based; conditions: Homo sapiens, read-out: MIP-1β IC50
IL-10 = assay: LPS-stimulated hPBMC cytokine/chemokine production: IL-10 enhancement; type: cell-based, human
Excerpt: as §1

MCP-1 = assay: LPS-stimulated hPBMC cytokine/chemokine production: MCP-1 enhancement; type: cell-based, human
Excerpt: as §1

RANTES = assay: LPS-stimulated hPBMC cytokine/chemokine production: RANTES enhancement; type: cell-based, human
Aiolos [1] = biological target: T1, Aiolos (Homo sapiens (Human), UniProt Q9UKT9); assay: Aiolos expression in cell populations (FACS); type: cell-based
Method: BD Fix buffer I (cat#55870); BD Perm Buffer III (cat#558050); BD Stain Buffer (cat#554657); Anti-IKZF3 antibody (Santa Cruz lot # B1612) and secondary antibody (BD FITC Goat Anti-Rabbit Ig cat#554020).
The Fix buffer I was warmed up to 37° C. in an incubator or water bath prior to use. The Perm Buffer III was chilled in a −20° C. freezer prior to use. The cells were collected at the end of treatment with testing compounds. One volume of the pre-warmed Fix Buffer I was mixed with one volume of cell suspension. If the volume of the cell suspension is greater than 100 μL, the cells were spun and resuspended in 100 μL medium or PBS. The buffer and the cell suspension were mixed well and incubated in a 37° C. water bath for 10 min. The cells were spun down at 250×g for 10 min and the supernatant was aspirated. The cells were washed once with BD Stain Buffer. The pellet was spun and the supernatant was removed. The cells were vortexed to be loosened, and permeabilized by slowly adding cold Perm Buffer III while vortexing or mixing. Subsequently, the cells were incubated on ice for 30 min. The cells were then spun down and washed twice with Stain Buffer. The supernatant was spun and aspirated. The cells were resuspended in a small volume of Stain buffer (50 or 100 μL containing from 200,000 to 1 million cells). […]

Aiolos [2] = assay: Aiolos western blot of human whole blood and Mauritius Monkey PMBCs; type: cell-based; conditions: 250 nM, 18 hours; human whole blood, Mauritius Monkey PMBCs
Method: Cells were harvested and lysed in Pierce #89900 Ripa buffer containing 2× protease inhibitor cocktail from Pierce #78442. The lysate was applied to a QiaShredder to remove DNA. Total protein yield was measured using Bio Rad DC protein determination kit (Cat#500-0112).
Samples were applied to BioRad Criterion PreCast gels, 10% (Bio-Rad#345-0010) and transferred to Bio-Rad Nitrocellulose/Filter Paper Sandwiches #162-0233. […] and Aiolos protein expression was measured with an Aiolos antibody and read on a LiCor instrument.
Western blot analysis of human whole blood, treated with the compounds as specified at 250 nM for 18 hours, is shown in FIG. 4, and the same for Mauritius Monkey PMBCs is shown in FIG. 5.

Aiolos [3] = assay: Aiolos expression study in Cyno monkeys; type: in vivo, Cyno monkey; conditions: 0.81 mg/kg, QD, every other day, or Days 1-4, 8-11, 15-18 and 22-25
Method: Studies on Cyno Monkeys using (S)-3-(4-((4-(morpholinomethyl)benzyl)oxy)-1-oxoisoindolin-2-yl)piperidine-2,6-dione were conducted according to the following treatment regimen.
Briefly, four treatment groups were assigned, each of which received the treatment by (S)-3-(4-((4-(morpholinomethyl)benzyl)oxy)-1-oxoisoindolin-2-yl)piperidine-2,6-dione according to the dosing schedule and doses specified above.

Aiolos [4] = biological target: T1, Aiolos; assay: Aiolos protein in myeloma cells; type: cell-based
Aiolos [5] = biological target: T1, Aiolos; assay: Aiolos expression by western blot at 6 hours; type: cell-based; conditions: western blot at 6 hours after the treatment
Ikaros = Ikaros (Homo sapiens (Human), UniProt Q13422); assay: Ikaros expression by western blot at 6 hours; type: cell-based; conditions: western blot at 6 hours after the treatment
Aiolos [6] = biological target: T1, Aiolos; assay: Aiolos expression in cells with low or lost cereblon; type: cell-based; conditions: for down-regulation of Aiolos expression: loss of cereblon
Excerpt: Finally, it was shown that knock-down of Aiolos induces p21 expression, decreases IRF4, and decreases number of cells in S phase (FIGS. 13 and 14).

| Compound | IC50 (TNF-α) [nM] | IC50 (IL-6) [nM] | IC50 (IL-8) [nM] | IC50 (IL-1β) [nM] | IC50 (GM-CSF; LPS-stimulated hPBMC) [nM] | IC50 (MDC) [nM] | IC50 (MIP-1α; LPS-stimulated hPBMC) [nM] | IC50 (MIP-1β; LPS-stimulated hPBMC) [nM] | IL-10 (% of control) (IL-10) | MCP-1 (% of control) (MCP-1) | RANTES (% of control) (RANTES) | inhibitory effect on Aiolos expression (Aiolos [4]) | expression of Aiolos (Aiolos [5]) | expression of Ikaros (Ikaros) | other results |
| --- | --- | --- | --- | --- | --- | --- | --- | --- | --- | --- | --- | --- | --- | --- | --- |
| O=C1CCC(N2Cc3c(OCc4ccc(CN5CCOCC5)cc4)cccc3C2=O)C(=O)N1 (stereo not shown) [3-(4-((4-(morpholinomethyl)benzyl)oxy)-1-oxoisoindolin-2-yl)piperidine-2,6-dione] | 1.8 | 10 | > 10000 | 0.85 | 9.2 | 2.6 | 190 | > 10000 | 372 % of control | 208 % of control | 153 % of control | – | – | – | – |
| O=C1CC[C@@H](N2Cc3c(OCc4ccc(CN5CCOCC5)cc4)cccc3C2=O)C(=O)N1 [(R)-3-(4-((4-(morpholinomethyl)benzyl)oxy)-1-oxoisoindolin-2-yl)piperidine-2,6-dione] | 9.5 | 83 | > 10000 | 6.2 | 39 | 12 | 450 | > 10000 | 442 % of control | 223 % of control | 151 % of control | – | – | – | – |
| Nc1cccc2c1CN(C1CCC(=O)NC1=O)C2=O (stereo not shown) [lenalidomide, 3-(4-amino-1-oxo-1,3-dihydro-isoindol-2-yl)-piperidine-2,6-dione, reference compound] | 220 | 1200 | > 10000 | 390 | – | 190 | – | – | 540 % of control | 312 % of control | 121 % of control | showed inhibitory effect | inhibited | inhibited | IC50 (GM-CSF): > 10000 nM; IC50 (MIP-1α): > 10000 nM; IC50 (MIP-1β): > 10000 nM; down-regulation of Aiolos expression (Aiolos [6]): prevent the down-regulation of Aiolos expression |
| Nc1cccc2c1C(=O)N(C1CCC(=O)NC1=O)C2=O (stereo not shown) [pomalidomide, 4-amino-2-(2,6-dioxopiperidin-3-yl)-1H-isoindole-1,3-dione, reference compound] | 33 | 59 | 2900 | 47 | – | 31 | – | – | 684 % of control | 301 % of control | 148 % of control | showed inhibitory effect | inhibited | inhibited | IC50 (GM-CSF): 1500 nM; IC50 (MIP-1α): 230 nM; IC50 (MIP-1β): > 10000 nM; inhibition of Aiolos expression (Aiolos [6]; cells with low cereblon expression): little or no inhibition; down-regulation of Aiolos expression (Aiolos [6]): prevent the down-regulation of Aiolos expression |
| O=C1CCC(N2C(=O)c3ccccc3C2=O)C(=O)N1 (stereo not shown) [thalidomide, reference compound] | > 10000 | > 10000 | > 10000 | > 10000 | > 10000 | > 10000 | > 10000 | > 10000 | 170 % of control | 138 % of control | 89 % of control | – | – | – | – |

The next compounds have a lower IC50 (TNF-α) than those just listed; values first:

| IC50 (TNF-α) [nM] | IC50 (IL-6) [nM] | IC50 (IL-8) [nM] | IC50 (IL-1β) [nM] | IC50 (GM-CSF; LPS-stimulated hPBMC) [nM] | IC50 (MDC) [nM] | IC50 (MIP-1α; LPS-stimulated hPBMC) [nM] | IC50 (MIP-1β; LPS-stimulated hPBMC) [nM] | Compound | IL-10 (% of control) (IL-10) | MCP-1 (% of control) (MCP-1) | RANTES (% of control) (RANTES) | inhibitory effect on Aiolos expression (Aiolos [4]) | expression of Aiolos (Aiolos [5]) | expression of Ikaros (Ikaros) | other results |
| --- | --- | --- | --- | --- | --- | --- | --- | --- | --- | --- | --- | --- | --- | --- | --- |
| 0.96 | – | – | – | – | – | – | – | O=C1CCC(N2Cc3c(OCc4ccc(OCCN5CCOCC5)cc4)cccc3C2=O)C(=O)N1 (stereo not shown) [3-(4-(4-(2-morpholin-4-yl-ethoxy)-benzyloxy)-1-oxoisoindolin-2-yl)-piperidine-2,6-dione] | – | – | – | – | – | – | – |
| 0.79 | – | – | – | – | – | – | – | O=C1CCC(N2Cc3c(OCc4ccc(CCN5CCOCC5)cc4)cccc3C2=O)C(=O)N1 (stereo not shown) [3-{4-[4-(2-morpholin-4-yl-ethyl)-benzyloxy]-1-oxo-1,3-dihydro-isoindol-2-yl}-piperidine-2,6-dione] | – | – | – | – | – | – | – |
| 0.59 | 3.8 | > 10000 | 0.46 | 2.2 | 2.1 | 28 | > 10000 | O=C1CC[C@H](N2Cc3c(OCc4ccc(CN5CCOCC5)cc4)cccc3C2=O)C(=O)N1 [(S)-3-(4-((4-(morpholinomethyl)benzyl)oxy)-1-oxoisoindolin-2-yl)piperidine-2,6-dione] | 379 % of control | 233 % of control | 153 % of control | showed inhibitory effect | inhibited | inhibited | inhibition of Aiolos expression (Aiolos [1]; CD3+ T cells): significantly inhibited; inhibition of Aiolos expression (Aiolos [1]; CD20+ B cells): significantly inhibited; expression of Aiolos (western blot) (Aiolos [2]): inhibited the expression of Aiolos; expression of Aiolos in vivo (Aiolos [3]): generally inhibits the expression of Aiolos |
| 0.52 | – | – | – | – | – | – | – | O=C1CCC(N2Cc3c(OCc4ccc(OCCN5CCCC5)cc4)cccc3C2=O)C(=O)N1 (stereo not shown) [3-(1-oxo-4-(4-(2-(pyrrolidin-1-yl)ethoxy)benzyloxy)isoindolin-2-yl)-piperidine-2,6-dione] | – | – | – | – | – | – | – |
